Consider four compounds from patent publication US20250073249A1, “STEROID COMPOUND, AND PREPARATION METHOD THEREFOR AND USE THEREOF” (SHANGHAI INSTITUTE OF MATERIA MEDICA, CHINESE ACADEMY OF …, priority 2022, published 2025).

One experiment has as its target T1, AR(F876L) (Homo sapiens, UniProt P10275, F877L).
T1 construct: expressed in transfected cells; host or cells: HEK293
T1 sequence (P10275 1-920 F877L): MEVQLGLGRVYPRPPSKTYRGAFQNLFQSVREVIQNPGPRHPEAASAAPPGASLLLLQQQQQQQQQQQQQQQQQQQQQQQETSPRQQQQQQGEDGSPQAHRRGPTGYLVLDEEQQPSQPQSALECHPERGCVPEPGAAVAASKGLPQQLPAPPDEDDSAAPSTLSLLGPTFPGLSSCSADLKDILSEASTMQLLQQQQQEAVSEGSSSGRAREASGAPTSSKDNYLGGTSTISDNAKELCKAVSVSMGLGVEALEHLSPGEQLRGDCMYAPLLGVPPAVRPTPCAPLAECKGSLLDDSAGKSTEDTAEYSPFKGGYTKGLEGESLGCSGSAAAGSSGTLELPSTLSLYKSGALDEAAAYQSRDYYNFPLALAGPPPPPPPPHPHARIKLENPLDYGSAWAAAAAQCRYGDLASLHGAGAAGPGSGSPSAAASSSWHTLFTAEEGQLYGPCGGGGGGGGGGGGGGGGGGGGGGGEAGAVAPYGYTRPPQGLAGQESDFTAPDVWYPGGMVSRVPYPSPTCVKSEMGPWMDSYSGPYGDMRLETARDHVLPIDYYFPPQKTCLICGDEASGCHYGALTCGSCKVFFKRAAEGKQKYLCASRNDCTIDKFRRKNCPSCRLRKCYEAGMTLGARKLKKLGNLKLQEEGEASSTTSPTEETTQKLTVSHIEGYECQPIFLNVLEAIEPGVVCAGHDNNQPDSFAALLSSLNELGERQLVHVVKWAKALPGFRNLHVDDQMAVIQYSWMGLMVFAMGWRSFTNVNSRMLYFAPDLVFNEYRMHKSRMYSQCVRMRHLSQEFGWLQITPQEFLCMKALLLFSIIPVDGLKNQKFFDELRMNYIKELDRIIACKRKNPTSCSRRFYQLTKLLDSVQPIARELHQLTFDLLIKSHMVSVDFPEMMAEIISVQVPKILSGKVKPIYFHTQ
Kind of experiment: Mutant AR antagonistic activity test, F876L (reporter gene in HEK293 cells). It is filed as cell-based. The following applies: DHT 10 nM, 24 hours, read-out: F876L IC50(nM) 2nd gen AR antagonist resistant mutation. How it is done: HEK293 cells were cultured in DMEM supplemented with 10% FBS and 1% GlutaMax at 37° C. with 5% CO2. The day before transfection, the medium was changed to DMEM containing 10% charcoal-stripped FBS and 1% GlutaMax. […] The cell suspension was diluted with cell seeding solution, and the transfection reagent was added to achieve 500,000 cells/mL. Subsequently, 90 μL of cell suspension was seeded into each well of the assay plate. The next day, compounds were prepared: starting from 8 mM, 3-fold serial dilutions were performed in DMSO for a total of 8 points, then 500 nL was transferred to the compound plate using Echo. The compounds were then diluted with 40 μL of medium to 10× final concentration, and 10 μL was transferred to the cell plate and incubated at 37° C. for 30 minutes. Subsequently, 10 nL of DHT at a final concentration of 10 nM was transferred to each well of the assay plate using TECAN. After 24 hours of incubation, 100 μL of Steady-Glo was added to the assay plate and read on an Envision reader. Data were determined and analyzed using GraphPad Prism.
A general note: A reporter such as luciferase makes a cellular process visible.

A further experiment deals with T2, wild-type AR (Homo sapiens, UniProt P10275).
T2 construct: expressed in transfected cells; host or cells: HEK293
T2 sequence (P10275 1-920): T1 sequence (P10275 1-920 F877L) with L877F
Description: Wild-type AR antagonist activity test (luciferase reporter in HEK293 cells). The class given is cell-based. The conditions noted are these: for IC50: HEK293 cells, luciferase expression, DHT 1.5 nM, 24 hours; for AR antagonist activity, times higher than that of the control enzalutamide: ratio to enzalutamide IC50. How it is done: HEK293 cells were cultured in DMEM containing 10% fetal bovine serum (FBS) at 37° C. with 5% CO2. The cells were then digested with trypsin and counted. A 10 μL/well transfection solution was prepared in opti-MEM containing 5 ng androgen receptor clone, 100 ng pGL4.36 vector, and 315 nL fugene. […] The diluted cell suspension was seeded into 96-well plates at 90 μL (40,000 cells/well), and the plates were incubated for 24 hours. Then, 10 μL of drug solution (including gradient diluted compounds or DMSO) was added, and the plates were incubated for 30 minutes. […] After 24 hours of incubation, 100 μL of Steady-Glo was added to each well of the plate, the plate was shaken at room temperature for 20 minutes, and read on an Envision.

Residue numbers refer to the chain shown, from its start.

What is called IC50 is the concentration at which inhibition is half-maximal. With `Cc1cn(C2=CCC3C4CC=C5C[C@@H](NC(=O)c6ccc(S(C)(=O)=O)cc6)CC[C@]5(C)C4CC[C@]23C)cn1` (stereo partly drawn) [Compound 35, N-((3S,10R,13S)-17-(4-methyl-1H-imidazol-1-yl)-10,13-dimethyl-2,3,4,7,8,9,10,11,12,13,14,15-dodecahydro-1H-cyclopenta[a]phenanthren-3-yl)-4-(methylsulfonyl)benzamide], the IC50 was 326 nM on AR(F876L) and 433 nM against wild-type AR.
Regarding `Cc1cn(C2=CCC3C4CC=C5C[C@@H](NC(=O)c6ccc(F)cc6F)CC[C@]5(C)C4CC[C@]23C)cn1` (stereo partly drawn) [Compound 37, N-((3S,10R,13S)-17-(4-methyl-1H-imidazol-1-yl)-10,13-dimethyl-2,3,4,7,8,9,10,11,12,13,14,15-dodecahydro-1H-cyclopenta[a]phenanthren-3-yl)-2,4-difluorobenzamide], the IC50 at AR(F876L) was determined as 273 nM. Moreover, at wild-type AR, the IC50 came to 235 nM and the “AR antagonist activity, times higher than that of the control enzalutamide” value turned out to be 1.9 times.
On to `Cc1cn(C2=CCC3C4CC=C5C[C@@H](NC(=O)c6ccc(F)cc6)CC[C@]5(C)C4CC[C@]23C)cn1` (stereo partly drawn) [Compound 33, N-((3S,10R,13S)-17-(4-methyl-1H-imidazol-1-yl)-10,13-dimethyl-2,3,4,7,8,9,10,11,12,13,14,15-dodecahydro-1H-cyclopenta[a]phenanthren-3-yl)-4-fluorobenzamide], for which the IC50 on AR(F876L) came out at 390 nM. For the same compound, at wild-type AR, the IC50 came out at 120 nM and the “AR antagonist activity, times higher than that of the control enzalutamide” value is given as 3.6 times.
In the same order, the values of `Cc1cn(C2=CCC3C4CC=C5C[C@@H](NC(=O)c6ccncc6)CC[C@]5(C)C4CC[C@]23C)cn1` (stereo partly drawn) [Compound 14, N-((3S,10R,13S)-10,13-dimethyl-17-(4-methyl-1H-imidazol-1-yl)-2,3,4,7,8,9,10,11,12,13,14,15-dodecahydro-1H-cyclopenta[a]phenanthren-3-yl)isonicotinamide] are 268 nM, 247 nM and 1.8 times.
